According to BigSolDB 2.1:

CC(CO)(CO)C(=O)O
solubility (mole fraction)
Settings	in 1,4-dioxane	in MIBK	in cyclopentyl methyl ether	in ethyl acetate	in gamma-butyrolactone	in gamma-valerolactone	in n-butyl acetate
298.15 K	0.00778	0.0149	0.00164	0.00368	0.00637	0.00643	0.00173
303.15 K	0.00937	0.0164	0.00194	0.00388	0.00793	0.008	0.00199
308.15 K	0.0124	0.0172	0.00239	0.00447	0.00942	0.00913	0.00234
313.15 K	0.0147	0.0186	0.00276	0.00507	0.012	0.0107	0.00268
318.15 K	0.0178	0.0192	0.00329	0.00646	0.0148	0.0124	0.00294
323.15 K	0.0219	0.0202	0.00366	0.00745	0.0187	0.0146	0.00381
328.15 K	0.0258	0.022	0.00381	0.00824	0.0214	0.0183	0.00433
333.15 K	0.0334	0.0244	0.00433	0.0124	0.026	0.0218	0.00528
338.15 K	0.0365	0.0259	0.00501	0.0147	0.0315	0.0251	0.00572
343.15 K	0.041	0.0274	0.00598	–	0.0367	0.0305	0.00685
345.15 K	0.0442	–	–	–	0.0392	0.0324	–
348.15 K	0.0479	0.0288	0.00621	–	0.042	0.037	0.00763
350.15 K	0.0501	–	–	–	0.048	0.0386	–
353.15 K	0.0535	0.0296	0.00906	–	0.0529	0.0406	0.00902
